Columns and labels:
[1] = tested on: cdc2 (tyrosine 15 phosphorylation, pcdc-2); assay: Western blotting for pcdc-2 in peptide-treated HEK 293 cells; assay type: cell-based; conditions: for pcdc-2 level: HEK 293, 10 μM peptide, 12 h (FIG. 4A); for pcdc-2 level compared to untreated cells: HEK 293, peptide-treated lysates (FIG. 3C, 3D)
Description: P44 peptide controls the activity of cell cycle regulatory proteins: The minimal dose of P44 peptide that was functionally effective in activating p53 was evaluated by incubating HEK 293 cells with varying concentrations of P44 peptide (1-100 μM) (FIG. 3A) and after 12 h of incubation, protein lysates were prepared and processed for immunoblotting with total p53 (DO-1) and p53 ser-15 phospho-specific antibodies. […] However, there was a 4.5-fold increase in the expression of phosphorylated p53 (pSerine-15 p53) in P44 peptide-treated cells (FIG. 3A, lanes 2-6). To exclude the possibility that p53 activation is an effect of the protein transduction domain of HIV-1 TAT protein, similar set of experiment was performed using TAT-PTD peptide alone (consisting of only the 11-mer TAT-sequence). […] This observation reconfirmed that the RS domain (288-350 aa) of SMAR1 could exclusively activate p53 by mediating its phosphorylation specifically at serine-15 residue. Serine-15 phosphorylation of p53 is associated with its increased transcription efficiency, decreased affinity for MDM2, and its increased nuclear retention. One of the target genes activated by p53 is p21, an inhibitor of a subset of the cyclin-dependent kinases including cdc-2 (Sherr, C. J., and Roberts, J. M. (1999) Genes Dev. 13, 1501-1512). To evaluate the significance of peptide-mediated p53 activation, P44 peptide-treated lysates were further checked for tyrosine 15 phosphorylation of cdc2. […] HEK 293 cells were treated with SM peptide and checked for p53 as well as pcdc-2 levels.
Serine 347 residue of SMAR1: critical for mediating the effects of full-length SMAR1: Once it was established that the serine motif (SSSSYS) plays a pivotal role in SMAR1-mediated p53 activation, it got necessary to identify the serine residue within this motif that might be necessary in mediating these effects. To identify the critical serine residue within P44 peptide, various point-mutant peptides were custom synthesized, that varied with respect to the position of serine residue that was mutated (Table 1). To evaluate the functionality of mutant chimeric TAT-SMAR1 peptides [PS347A, PS348A, PS349A, PS350A and RS mutant (SM)] in comparison to the TAT-SMAR1 WT peptide (P44), HEK 293 cells were treated with 10 μM concentration of either of the peptides and protein lysates were prepared after 12 h incubation period. The lysates were then processed for immunoblotting with pSer-15 p53 and pcdc-2 antibodies. […] However, this was not the case with other mutated peptides. When the alanine was replaced back to serine at the 347 residue (FIG. 4A, lanes 3-5), the functionality of the peptide was restored as observed with increase in pcdc-2 levels. […] However, in case of SM (where serine residues from 347-350 were replaced by alanines) treated cells (FIG. 4A, lane 7), there was no difference in the pSer-15 p53 as well as pcdc-2 levels compared to either untreated or PS347A treated cells (FIG. 4A, lanes 1 and 2, respectively).
FIG. 3. P44 peptide activates p53-mediated cell cycle pathway. A, HEK 293 cells were seeded at a density of 5×10^5 and after 24 h, was incubated with increasing concentrations of the TAT-SMAR1 WT (P44) peptide. Protein lysates were prepared and then immunoblotted with antibodies to total p53, phospho serine-15. B, The same set of experiment was repeated with TAT PTD peptide representing the PTD carrier sequence alone and immunoblotted with phospho serine-15, in comparison of P44 treated cells. C, The status of phospho cdc-2 was further analyzed in P44 peptide treated cells. Total […] was used as an internal control. D, The same set of experiments were again repeated using TAT-SMAR1 RS mutant (SM) peptide and whole cell lysates were probed for phospho p53 serine-15 and pcdc-2 antibodies. […] was used as a loading control.
FIG. 4. Serine 347 residue of SMAR1 mediates p53 activation and stabilization. […]

[2] = target: T1, p53 (Homo sapiens, UniProt P04637); assay: Indirect immunofluorescence of p53 in peptide-treated HEK 293 cells (confocal imaging); assay type: cell-based; conditions: HEK 293, 10 μM peptide, 12 h
T1 construct: HEK 293 (p53^+/+) cells; endogenous in cells; host or cells: HEK 293
T1 sequence (P04637 whole entry): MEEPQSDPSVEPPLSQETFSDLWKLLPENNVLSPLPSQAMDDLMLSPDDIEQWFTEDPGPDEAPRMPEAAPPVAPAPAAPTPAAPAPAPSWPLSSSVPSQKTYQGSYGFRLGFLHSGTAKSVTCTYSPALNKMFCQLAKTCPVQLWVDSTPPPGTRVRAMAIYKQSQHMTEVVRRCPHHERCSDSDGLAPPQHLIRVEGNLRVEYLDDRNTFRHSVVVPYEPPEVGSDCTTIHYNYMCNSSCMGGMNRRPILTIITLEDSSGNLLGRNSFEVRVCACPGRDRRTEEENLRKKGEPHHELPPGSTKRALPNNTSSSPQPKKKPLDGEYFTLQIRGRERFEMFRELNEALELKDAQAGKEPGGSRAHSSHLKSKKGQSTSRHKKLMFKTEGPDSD
Description: HEK 293 cells were treated with 10 μM of various TAT-SMAR1 derived peptides.
FIG. 4. Serine 347 residue of SMAR1 mediates p53 activation and stabilization. A, HEK 293 cells were cultured at a density of 5×10^5 cells and 24 h later treated with 10 μM concentration of either the P44 or various serine-mutant peptides (PS347A, PS348A, PS349A, PS350A and RS mutant; SM). After 12 h of treatment, protein lysates were prepared and immunoblotted using pSer-15 p53 and pcdc-2 antibodies. Actin was used as the loading control. B, Peptides P44 (panel B), PS347A (panel C), PS348A (panel D), PS349A (panel E), PS350A (panel F) and SM (panel G) were incubated at a final concentration of 10 μM with HEK 293 cells for 12 h before indirect immunofluorescence detection with a primary antibody against p53 protein and a secondary fluorescein-conjugated anti-mouse IgG.
Immunocytochemistry and confocal imaging: For direct detection of TRITC-labeled peptides, HEK 293 cells were plated directly on a glass coverslip and cultured overnight prior to their treatment to TRITC-conjugated various TAT-SMAR1 derived peptides. After 12 h incubation, three washings with cold PBS were given and the cells fixed with 3.7% paraformaldehyde before being mounted in PBS/Glycerol (1:1) containing antifading agent. For indirect immunodetection, 2×10^5 HEK 293 cells were plated and cultured overnight in 35 mm plates on glass coverslips. The cell monolayer was then treated with either of the various TAT SMAR1 derived peptides, dissolved directly in complete DMEM medium at the appropriate concentration (final concentration 10 μM). After 12 h incubation, cells were washed twice with cold PBS and fixed with 3.7% paraformaldehyde. Subsequently, fixed cells were stained for total p53 using anti-p53 (DO-1) (SantaCruz) for an hour at room temperature.
For detection, cells were incubated with a secondary-antibody mix containing FITC-conjugated anti-mouse IgG antibodies (Sigma) for 1 h at RT. Slides were then mounted in antifade mounting medium (Dako) and analyzed with a confocal laser scanning microscope (CLSM 510, version 2.01; Zeiss, Thornwood, N.Y.).

## YGRKKRRQRRRTAWRRKQRGQSLAVKSFSRRTPAAAAYSASETM [SM, P44 mutant where serine residues from 347-350 were replaced by alanines]
[1]
  pcdc-2 level: no difference
  pcdc-2 level compared to untreated cells: no increase
[2]
  p53 activation and stabilization within the nucleus: almost negligible expression of p53 within the nucleus

## YGRKKRRQRRRTAWRRKQRGQSLAVKSFSRRTPSSASYSASETM [PS349A, point mutant of P44, serine 349 replaced by alanine]
[1]
  pcdc-2 level: increase
[2]
  p53 activation and stabilization within the nucleus: p53 stabilization was observed

## YGRKKRRQRRRTAWRRKQRGQSLAVKSFSRRTPASSSYSASETM [PS347A, point mutant of P44, serine 347 replaced by alanine]
[1]
  pcdc-2 level: decreased
[2]
  p53 activation and stabilization within the nucleus: almost negligible expression of p53 within the nucleus

## YGRKKRRQRRRTAWRRKQRGQSLAVKSFSRRTPSASSYSASETM [PS348A, point mutant of P44, serine 348 replaced by alanine]
[1]
  pcdc-2 level: increase
[2]
  p53 activation and stabilization within the nucleus: p53 stabilization was observed

## YGRKKRRQRRRTAWRRKQRGQSLAVKSFSRRTPSSSAYSASETM [PS350A, point mutant of P44, serine 350 replaced by alanine]
[1]
  pcdc-2 level: increase
[2]
  p53 activation and stabilization within the nucleus: p53 stabilization was observed

## YGRKKRRQRRRTAWRRKQRGQSLAVKSFSRRTPSSSSYSASETM [P44, 33 mer SMAR1 peptide (residues 324-357) conjugated with 11-mer TAT-PTD]
[1]
  pcdc-2 level: increase
  pcdc-2 level compared to untreated cells: upregulation
[2]
  p53 activation and stabilization within the nucleus: activate and stabilize p53 within the nucleus

— patent US8420100B2, “Tumor suppressor activating polypeptides and uses thereof” (Department of Biotechnology, priority 2006, dated 2013)
